Reference: ChEMBL document CHEMBL1141032, “Design and synthesis of peptidomimetic severe acute respiratory syndrome chymotrypsin-like protease inhibitors” (J Med Chem, 2005)

Experiments:
[1] = target: Replicase polyprotein 1a (Severe acute respiratory syndrome-related coronavirus) (UniProt P0C6U8); experiment: Half life period against SARS-CoV 3CLpro protease
[2] = target: Replicase polyprotein 1a (Severe acute respiratory syndrome-related coronavirus) (UniProt P0C6U8); experiment: Inactivation rate constant against SARS-CoV 3CLpro protease
[3] = target: Replicase polyprotein 1a (Severe acute respiratory syndrome-related coronavirus) (UniProt P0C6U8)
[4] = target: Replicase polyprotein 1a (Severe acute respiratory syndrome-related coronavirus, UniProt P0C6U8); experiment: Inhibitory concentration required for antiviral activity against SARS-CoV 3CLpro protease

For `CC(C)C[C@H](NC(=O)[C@@H](O)C(S)C(=O)O)C(=O)NCCCCN=C(N)N` (some centres undefined), the T1/2 [1] was 5.25 h and the kinact [2] was 0.0022 min⁻¹.

In the case of `CCOC(=O)/C=C/[C@H](C[C@@H]1CCNC1=O)NC(=O)[C@H](CC=C(C)C)CC(=O)[C@@H](NC(=O)c1cc(C)on1)C(C)C`, the T1/2 [1] is reported as 0.25 h and the kinact [3] is reported as 0.045 min⁻¹.

`CCOC(=O)/C=C/[C@H](C[C@@H]1CCNC1=O)NC(=O)[C@@H](CC(=O)[C@@H](NC(=O)c1cc(C)on1)C(C)C)Cc1ccccc1` gave a T1/2 [1] of 0.817 h, an IC50 [4] of 45 µM and a kinact [2] of 0.014 min⁻¹.

`CCOC(=O)/C=C/[C@H](C[C@@H]1CCNC1=O)NC(=O)[C@H](Cc1ccccc1)CC(O)[C@@H](NC(=O)c1cc(C)on1)C(C)C` (some centres undefined) gave a T1/2 [1] of 4.62 h and a kinact [2] of 0.0025 min⁻¹.
